The values below come from patent publication US3989687A, “4-Oxo-1-pyridinyl penicillin derivatives” (Richardson-Merrell Inc., priority 1975, dated 1976).

One data set relates to Staphylococcus aureus. Kind of data set: in vitro agar plate filter paper disc test, zones of inhibition: Staphylococcus aureus. Type of data set: cell-based. The settings on record: read-out: Minimal inhibiting concentration, Staphylococcus aureus. How it is done:
(§1) Specific nutrient agar plates are completely innoculated with the various test organisms. Filter paper discs are placed on the surface of the agar and wetted with 0.1 ml. of a solution containing 10, 100 and 1,000 micrograms of the test compound. Zones of inhibition of microbial growth are used to indicate the antibacterial activity of the test compound against the various test organisms employed.
(§2) The following table summarizes the in vitro activity of the following representative compounds: 6-[2-(4-oxo-1-pyridinyl)acetylamino]penicillanicacid, sodium salt (1), 7-[2-(4-oxo-1-pyridinyl)acetylamino]desacetoxycephalosporanic acid (2), 6-[2-(3,5-diiodo-4-oxo-1-pyridinyl)acetylamino]penicillanic acid, sodium salt (3), 7-[2-(2,6-dimethyl-4-oxo-1-pyridinyl)acetylamino]desacetoxycephalosporanicacid, sodium salt (4), 7-[2-(4-oxo-1-pyridinyl)acetylamino]cephalosporanicacid, sodium salt (5) and 6-[2-(4-oxo-1-quinolinyl)acetylamino]penicillanic acid, sodium salt (6).

Data set [1] has as its system Salmonella schottmuelleri. The experiment in a line: in vitro agar plate filter paper disc test, zones of inhibition: Salmonella schottmuelleri. The data set is classed as cell-based. Particulars: read-out: Minimal inhibiting concentration, Salmonella schottmuelleri. How it is done:
as §1, §2

The subject of another data set is Streptococcus pyogenes. The experiment in a line: in vitro agar plate filter paper disc test, zones of inhibition: Streptococcus pyogenes. Type of data set: cell-based. Particulars: read-out: Minimal inhibiting concentration, Streptococcus pyogenes. How it is done: as §1, §2
A further data set is described as follows: acid resistance. The data set is classed as physicochemical.
For data set [2], the system named is (Penicillinase Producing) Staphylococcus aureus. Kind of data set: in vitro agar plate filter paper disc test, zones of inhibition: penicillinase producing Staphylococcus aureus. The settings on record: read-out: Minimal inhibiting concentration, (Penicillinase Producing) Staphylococcus aureus. Type of data set: cell-based. How it is done:
as §1, §2

Where [3] appears, read: in vitro, 0.1 ml. of a solution containing 10, 100 and 1,000 micrograms on filter paper discs.
Setting [4] is: in vitro, penicillinase producing strain, 0.1 ml. of a solution containing 10, 100 and 1,000 micrograms on filter paper discs.

Each structure is given as a SMILES string. ≈ marks a conversion by molar mass, not a printed value. Counter-ions that a name gives are not always drawn. Like-named read-outs stand apart in the source and are kept apart here.

Turning to `CC1(C)S[C@@H]2C(NC(=O)Cn3cc(I)c(=O)c(I)c3)C(=O)N2[C@H]1C(=O)[O-].[Na+]` (stereo partly drawn) [(3), 6-[2-(3,5-diiodo-4-oxo-1-pyridinyl)acetylamino]penicillanic acid, sodium salt], the MIC with Staphylococcus aureus was 10 µg/mL; in data set [1], 100 µg/mL; in the data set with Streptococcus pyogenes, > 1000 µg/mL; in data set [2] it was > 1000 µg/mL. The “Acid Resistance” value in “acid resistance” is “Yes”.
Take `CC1(C)S[C@@H]2C(NC(=O)Cn3ccc(=O)c4ccccc43)C(=O)N2[C@H]1C(=O)[O-].[Na+]` (stereo partly drawn) [(6), 6-[2-(4-oxo-1-quinolinyl)acetylamino]penicillanic acid, sodium salt]: the MIC with Staphylococcus aureus was 10 µg/mL; in data set [1], 100 µg/mL; in the data set on Streptococcus pyogenes, 1000 µg/mL; in data set [2] it was 1000 µg/mL. For the same compound, the “Acid Resistance” value in “acid resistance” is recorded as “Yes”.
As to `CC1=C(C(=O)O)N2C(=O)C(NC(=O)Cn3ccc(=O)cc3)C2SC1` (stereo not drawn) [(2), 7-[2-(4-oxo-1-pyridinyl)acetylamino]desacetoxycephalosporanic acid], the MIC is 1000 µg/mL (≈ 2860 µM) in the data set with Staphylococcus aureus (setting [3]), > 1000 µg/mL in data set [1] (setting [3]), 1000 µg/mL (≈ 2860 µM) in the data set on Streptococcus pyogenes (setting [3]) and > 1000 µg/mL in data set [2] (setting [4]). Besides, the “Acid Resistance” value in the data set “acid resistance” is “Yes”.
Consider `CC1=C(C(=O)O)N2C(=O)C(NC(=O)Cn3c(C)cc(=O)cc3C)C2SC1` (stereo not drawn) [(4), 7-[2-(2,6-dimethyl-4-oxo-1-pyridinyl)acetylamino]desacetoxycephalosporanicacid, sodium salt], for which the MIC is 1000 µg/mL in the data set with Staphylococcus aureus (setting [3]), > 1000 µg/mL in data set [1] (setting [3]), > 1000 µg/mL with Streptococcus pyogenes (setting [3]) and > 1000 µg/mL in data set [2] (setting [4]). Moreover, the “Acid Resistance” value in the data set “acid resistance” is recorded as “Yes”.
`CC(=O)OCC1=C(C(=O)O)N2C(=O)C(NC(=O)Cn3ccc(=O)cc3)C2SC1` (stereo not drawn) [(5), 7-[2-(4-oxo-1-pyridinyl)acetylamino]cephalosporanicacid, sodium salt]: the MIC stood at 10 µg/mL in the data set on Staphylococcus aureus (setting [3]), 100 µg/mL in data set [1] (setting [3]), 100 µg/mL in the data set with Streptococcus pyogenes (setting [3]) and 1000 µg/mL in data set [2] (setting [4]). In “acid resistance”, the “Acid Resistance” value is reported as “Yes”.
As for `CC1(C)S[C@@H]2C(NC(=O)Cn3ccc(=O)cc3)C(=O)N2[C@H]1C(=O)[O-].[Na+]` (stereo partly drawn) [(1), 6-[2-(4-oxo-1-pyridinyl)acetylamino]penicillanicacid, sodium salt], the MIC was 10 µg/mL in the data set on Staphylococcus aureus, 100 µg/mL in data set [1], 1000 µg/mL in the data set on Streptococcus pyogenes and 1000 µg/mL in data set [2]. For the same compound, the “Acid Resistance” value in “acid resistance” is “Yes”.
